Source: patent US20230355605A1, “DRUG FOR ENHANCING FIBRINOLYTIC SYSTEM, AND USE THEREFOR” (priority 2020, published 2023)

Key:
[1] = system: rat model of ferric chloride-induced carotid thrombosis; experiment: Rat model of ferric chloride-induced carotid thrombosis; format: in vivo; conditions: 0.3, 1, 3 mg/kg oral
Description: The evaluation of the antithrombotic effect was performed according to the method described in Test Example 3 of WO2010/113022. Specifically, two hours before the procedure, the present compound suspended in a 0.5% sodium carboxymethylcellulose (CMC-Na) aqueous solution was orally administered to test groups of rats at dosages of 0.3, 1, and 3 mg/kg. […] Under anesthesia, ferric chloride was applied to a carotid artery of each rat to induce thrombus formation by damaging the blood vessel, and the time from thrombus formation to occlusion of the carotid artery (occlusion time) up to 30 minutes was measured with a Doppler blood flowmeter. Occlusion of the blood flow was defined as a state in which the average blood flow indicated zero on the chart.
The bleeding effect was also evaluated by measuring the bleeding time. The bleeding time was measured in the same rats as above by sticking the tail of each rat with an animal lancet 20 minutes after the ferric chloride treatment and then observing the presence or absence of blood adhered to filter paper every 30 seconds. The time until bleeding stopped (bleeding time) was used as an index of bleeding.

[2] = system: cynomolgus monkey model of saphenous arterial thrombus; experiment: Cynomolgus monkey model of saphenous arterial thrombus (PIT model); format: in vivo
Description: The thrombus formation inhibitory effect of the present compound was evaluated using a cynomolgus monkey model of saphenous arterial thrombus (PIT model) .
Before the procedure, the present compound suspended in a 0.5% CMC-Na aqueous solution was orally administered to test groups of cynomolgus monkeys at dosages of 0.1, 0.3, 1, and 3 mg/kg. […] A light irradiation probe was placed on a saphenous artery of each cynomolgus monkey to cause thrombus formation by applying green light of 540 nm for 20 minutes at the time of intravenously administering rose bengal (20 mg/kg). A decrease in blood flow due to this thrombus formation was measured with a pulse Doppler blood flowmeter, and the thrombus formation inhibitory effect of the present compound was evaluated by measuring the occlusion time on the first day and the cumulative occlusion time.

[3] = system: Salmonella typhimurium TA100, TA1535, TA98, TA1537 and Escherichia coli WP2uvrA; experiment: Mutagenicity study using bacteria (pre-incubation method); format: cell-based; conditions: five strains; metabolic activation method and direct method
Description: The gene mutagenicity by the present compound was examined using bacteria.
A study was conducted in the presence of a metabolic activator (hereinafter referred to as a “metabolic activation method”) and in the absence of a metabolic activator (hereinafter referred to as a “direct method”) by a pre-incubation method, using three strains, i.e., Salmonella typhimurium TA100 and TA1535, and Escherichia coli WP2uvrA, to detect base pair substitution gene mutations, and two strains, i.e., Salmonella typhimurium TA98 and TA1537, to detect frameshift gene mutations.

hERG current = biological target: T1, hERG current (Homo sapiens, UniProt Q12809); experiment: Effect on hERG current (whole-cell patch clamp); format: cell-based; conditions: 0.1, 1, 10 µM; up to 10 µM; 10 minutes after application; hERG-expressing HEK293 cells
T1 construct: expressed in transfected cells; host or cells: HEK293
Description: The effect of the present compound on hERG current was examined by a whole-cell patch clamp method using HEK293 cells transfected with the human ether-a-go-go-related gene (hERG). This study was performed as part of a safety pharmacology core battery study to predict the risk of a drug-induced proarrhythmic effect, in particular, prolongation of QT interval on an electrocardiogram, in an in vitro study. The concentration of the present compound was set to 0.1, 1, and 10 µM, and the tail peak current suppression rate (%) 10 minutes after application relative to that before application was used as an index of the effect on hERG current. As a vehicle control, 0.1 v/v% DMSO was used, and as a positive control, 0.1 µmol/L of E-4031 was used.

male Crl:CD(SD) rats = experiment: Effect on central nervous system (functional observational battery); format: in vivo, rat; conditions: single oral dose, up to 300 mg/kg
Description: The effect of the present compound on the central nervous system was examined by the functional observational battery (FOB) in rats, using male Crl:CD(SD) rats. Specifically, the present compound was orally administered to the rats in a single dose, and the rats were observed before administration and 0.5, 1, 2, 4, 8, and 24 hours after administration. To a control group (six rats), a 0.5 w/v% carmellose sodium aqueous solution (vehicle) was administered instead of the present compound in the same manner. […] Thus, it was considered that the present compound has no effect on the central nervous system up to a dosage of 300 mg/kg in single oral dose administration using rats.

BCR-ABL^IS = experiment: Phase II long-term administration study with TKI in chronic-phase CML: efficacy against CML; format: in vivo, human; conditions: for Cumulative number of patients who achieved a DMR / Cumulative rate of patients who achieved a DMR: with TKI
Description: Further, the efficacy of the combined use of the present compound and the TKI against CML was evaluated.
The present compound was orally administered after breakfast to chronic-phase CML patients (33 patients) aged 20 or older and younger than 80 who had been treated orally with the TKI for 1 year or more. The dosage of the present compound was started at 150 mg/day. […] No patients dropped out or were withdrawn from the study, and all of the patients were included in analysis (SAS analysis, FAS analysis, and PPS analysis).
The efficacy against CML was evaluated from the following two points: • (1) cumulative achievement rate of CML patients who reached a DMR (BCR-ABL^IS: 0.0032% or less) • (2) change in BCR-ABL^IS
Within 28 days before the start of administration of the present compound, and 4, 8, 12, 24, 36, and 48 weeks after the start of administration of the present compound or at discontinuation, the investigator collected peripheral blood and conducted a test using a BCR-ABL^IS quantitative PCR kit (produced by Sysmex Corporation) to obtain results (IS%, ABL copy number, and BCR-ABL copy number).

T1 sequence (Q12809 whole entry): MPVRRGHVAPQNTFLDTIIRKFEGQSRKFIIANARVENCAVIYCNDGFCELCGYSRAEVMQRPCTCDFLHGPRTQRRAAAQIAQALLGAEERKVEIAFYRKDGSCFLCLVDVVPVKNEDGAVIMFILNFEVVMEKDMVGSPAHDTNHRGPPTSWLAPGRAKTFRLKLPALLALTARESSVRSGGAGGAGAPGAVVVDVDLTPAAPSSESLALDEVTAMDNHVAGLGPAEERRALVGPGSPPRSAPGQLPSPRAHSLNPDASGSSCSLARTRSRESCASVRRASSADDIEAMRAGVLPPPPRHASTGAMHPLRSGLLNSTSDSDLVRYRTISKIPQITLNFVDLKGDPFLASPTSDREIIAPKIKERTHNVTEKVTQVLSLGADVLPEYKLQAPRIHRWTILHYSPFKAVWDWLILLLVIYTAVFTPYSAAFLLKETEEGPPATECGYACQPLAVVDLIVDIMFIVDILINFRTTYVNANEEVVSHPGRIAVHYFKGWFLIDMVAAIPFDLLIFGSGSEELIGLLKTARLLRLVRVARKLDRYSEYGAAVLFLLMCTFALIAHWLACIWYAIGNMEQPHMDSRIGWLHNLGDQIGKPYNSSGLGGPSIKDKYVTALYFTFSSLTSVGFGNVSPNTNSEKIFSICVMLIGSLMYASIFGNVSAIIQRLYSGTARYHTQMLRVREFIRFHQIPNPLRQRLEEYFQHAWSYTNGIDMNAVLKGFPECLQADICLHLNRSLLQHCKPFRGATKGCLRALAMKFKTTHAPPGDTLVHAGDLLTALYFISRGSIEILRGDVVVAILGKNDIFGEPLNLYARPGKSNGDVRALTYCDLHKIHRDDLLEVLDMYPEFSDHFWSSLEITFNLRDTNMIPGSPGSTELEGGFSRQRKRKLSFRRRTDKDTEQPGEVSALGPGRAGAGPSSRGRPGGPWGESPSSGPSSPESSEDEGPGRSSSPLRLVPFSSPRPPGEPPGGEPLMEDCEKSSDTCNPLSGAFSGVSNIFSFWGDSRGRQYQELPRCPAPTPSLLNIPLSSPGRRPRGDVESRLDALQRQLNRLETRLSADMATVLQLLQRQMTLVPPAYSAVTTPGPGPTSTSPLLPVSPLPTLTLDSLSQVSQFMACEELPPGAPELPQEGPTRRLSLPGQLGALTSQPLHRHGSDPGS

Q: Which occlusion time ([1]; 2 hours before procedure) does the source give for `O=C(Nc1ccc(Cl)cc1C(=O)[O-])c1cccc(-c2cccc3cccnc23)c1.[Na+]` [present compound, sodium 5-chloro-2-({ [3-(quinolin-8-yl)phenyl]carbonyl}amino)benzoate] here?
A: prolongs the occlusion time in a dose-dependent manner

Q: And the “bleeding time vs vehicle group” value ([1]; tail lancet 20 minutes after ferric chloride)?
A: no significant difference

Q: What about the “initial occlusion time vs vehicle group” value ([2]; 0.3 mg/kg oral, P<0.05) of the same compound?
A: Significant prolongation

Q: What about the “cumulative occlusion time vs vehicle group” value ([2]; 0.1, 0.3, 1.0, 3.0 mg/kg oral, P<0.01, dose-dependent) of the same compound?
A: significant reductions

Q: And the minimum effective dosage ([2]; oral administration to monkeys)?
A: 0.1 mg/kg

Q: And the mutagenesis effect [3]?
A: no mutagenesis effect

Q: And the “suppressive effect on hERG current (tail peak current suppression rate)” value (hERG current)?
A: no suppressive effect

Q: And the “effect on the central nervous system” value (male Crl:CD(SD) rats)?
A: no effect

Q: What about the “Cumulative number of patients who achieved a DMR” value (shortened to “Cumulative number”) (BCR-ABL^IS; 4 weeks after the start of administration, 33 patients) of the same compound?
A: 5

Q: What about the “Cumulative rate of patients who achieved a DMR” value (“Cumulative rate” for short) (BCR-ABL^IS; 4 weeks after the start of administration) of the same compound?
A: 15.2%

Q: And the “Cumulative number” value (BCR-ABL^IS; 8 weeks after the start of administration, 33 patients)?
A: 9

Q: And the “Cumulative rate” value (BCR-ABL^IS; 8 weeks after the start of administration)?
A: 27.3%

Q: What about the “Cumulative number” value (BCR-ABL^IS; 12 weeks after the start of administration, 33 patients) of the same compound?
A: 9

Q: And the “Cumulative rate” value (BCR-ABL^IS; 12 weeks after the start of administration)?
A: 27.3%

Q: What about the “change in BCR-ABL^IS vs baseline” value (BCR-ABL^IS; 15 patients, 150 mg/day continuous, weeks 12 and 24) of the same compound?
A: significant decrease

Q: And the “change in BCR-ABL^IS vs baseline” value (BCR-ABL^IS; 18 patients, 150 mg/day to 180 mg/day increase, week 48)?
A: significant decrease

Q: What about the “Cumulative number” value (BCR-ABL^IS; 24 weeks after the start of administration, 33 patients) of the same compound?
A: 10

Q: What about the “Cumulative rate” value (BCR-ABL^IS; 24 weeks after the start of administration) of the same compound?
A: 30.3%

Q: What about the “change in BCR-ABL^IS vs baseline” value (BCR-ABL^IS; 33 patients, from week 12 onward, Wilcoxon test) of the same compound?
A: significant decrease

Q: And the “Cumulative number” value (BCR-ABL^IS; 36 weeks after the start of administration, 33 patients)?
A: 11

Q: And the “Cumulative rate” value (BCR-ABL^IS; 36 weeks after the start of administration)?
A: 33.3%

Q: What about the “Cumulative number” value (BCR-ABL^IS; 48 weeks after the start of administration, 33 patients) of the same compound?
A: 11

Q: And the “Cumulative rate” value (BCR-ABL^IS; 48 weeks after the start of administration)?
A: 33.3%

Q: And the “cumulative DMR achievement rate” value (BCR-ABL^IS; from week 36 onward, 150 to 180 mg/day with TKI)?
A: 33.3%

Q: What about the “patients who achieved a DMR” value (BCR-ABL^IS; of the 33 patients, 150 to 180 mg/day with TKI) of the same compound?
A: 11 patients

Q: And the “BCR-ABL^IS level (mean ± standard deviation)” value (BCR-ABL^IS; week 4, 33 patients, P = 0.1222)?
A: 0.0134±0.01301%

Q: And the “BCR-ABL^IS level (mean ± standard deviation)” value (BCR-ABL^IS; week 8, 33 patients, P = 0.0929)?
A: 0.0129±0.01569%

Q: What about the “BCR-ABL^IS level (mean ± standard deviation)” value (BCR-ABL^IS; week 12, 33 patients, P = 0.0228) of the same compound?
A: 0.0133±0.02012%

Q: And the “BCR-ABL^IS level (mean ± standard deviation)” value (BCR-ABL^IS; week 24, 33 patients, P = 0.0427)?
A: 0.0149±0.02596%

Q: And the “BCR-ABL^IS level (mean ± standard deviation)” value (BCR-ABL^IS; week 36, 33 patients, P = 0.0304)?
A: 0.0152±0.03427%

Q: And the “BCR-ABL^IS level (mean ± standard deviation)” value (BCR-ABL^IS; week 48, 33 patients, P = 0.0124)?
A: 0.0210±0.06718%
